From PubChem BioAssay (NCI)
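48-hour exposure; five concentrations; linearly interpolated endpoints. GI50 is the concentration that inhibits growth by half. TGI is the concentration that stops growth completely.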

Tests used:
Assay in all cases: NCI tumour cell line growth inhibition, 48 h; in the data active = GI50 below about 0.43 µM; inactive = the rest
786-0 renal = tested on: 786-0 renal
A498 renal = tested on: A498 renal
A549 NSCLC = tested on: A549 NSCLC
ACHN renal = tested on: ACHN renal
BT-549 breast = tested on: BT-549 breast
CAKI-1 renal = tested on: CAKI-1 renal
CCRF-CEM leukemia = tested on: CCRF-CEM leukemia
COLO 205 colon = tested on: COLO 205 colon
DU-145 prostate = tested on: DU-145 prostate
EKVX NSCLC = tested on: EKVX NSCLC
HCC-2998 colon = tested on: HCC-2998 colon
HCT-116 colon = tested on: HCT-116 colon
HCT-15 colon = tested on: HCT-15 colon
HOP-62 NSCLC = tested on: HOP-62 NSCLC
HOP-92 NSCLC = tested on: HOP-92 NSCLC
HS 578T breast = tested on: HS 578T breast
HT29 colon = tested on: HT29 colon
IGROV1 ovarian = tested on: IGROV1 ovarian
K-562 leukemia = tested on: K-562 leukemia
KM12 colon = tested on: KM12 colon
LOX IMVI melanoma = tested on: LOX IMVI melanoma
M14 melanoma = tested on: M14 melanoma
MALME-3M melanoma = tested on: MALME-3M melanoma
MCF7 breast = tested on: MCF7 breast
MDA-MB-231 breast = tested on: MDA-MB-231 breast
MDA-MB-435 = tested on: MDA-MB-435
MOLT-4 leukemia = tested on: MOLT-4 leukemia
NCI-H226 lung = tested on: NCI-H226 lung
NCI-H23 lung = tested on: NCI-H23 lung
NCI-H460 lung = tested on: NCI-H460 lung
NCI-H522 lung = tested on: NCI-H522 lung
OVCAR-3 ovarian = tested on: OVCAR-3 ovarian
OVCAR-4 ovarian = tested on: OVCAR-4 ovarian
OVCAR-5 ovarian = tested on: OVCAR-5 ovarian
OVCAR-8 ovarian = tested on: OVCAR-8 ovarian
PC-3 prostate = tested on: PC-3 prostate
RPMI-8226 leukemia = tested on: RPMI-8226 leukemia
RXF 393 renal = tested on: RXF 393 renal
SF-268 CNS = tested on: SF-268 CNS
SF-295 CNS = tested on: SF-295 CNS
SF-539 CNS = tested on: SF-539 CNS
SK-MEL-2 melanoma = tested on: SK-MEL-2 melanoma
SK-MEL-28 melanoma = tested on: SK-MEL-28 melanoma
SK-MEL-5 melanoma = tested on: SK-MEL-5 melanoma
SK-OV-3 ovarian = tested on: SK-OV-3 ovarian
SN12C renal = tested on: SN12C renal
SNB-19 CNS = tested on: SNB-19 CNS
SNB-75 CNS = tested on: SNB-75 CNS
SW-620 colon = tested on: SW-620 colon
T-47D breast = tested on: T-47D breast
TK-10 renal = tested on: TK-10 renal
U251 CNS = tested on: U251 CNS
UACC-257 melanoma = tested on: UACC-257 melanoma
UACC-62 melanoma = tested on: UACC-62 melanoma
UO-31 renal = tested on: UO-31 renal
HL-60(TB) leukemia = tested on: HL-60(TB) leukemia
NCI/ADR-RES ovarian = tested on: NCI/ADR-RES ovarian
SR leukemia = tested on: SR leukemia

CC1SC(c2ccc(Cl)cc2Cl)N(NC(=O)C(O)c2ccccc2)C1=O (stereo not given)
98.5 µM: TGI (OVCAR-4 ovarian)
inactive: GI50 (786-0 renal) > 100 µM | GI50 (A498 renal) > 100 µM | GI50 (A549 NSCLC) 33.9 µM | GI50 (ACHN renal) 48.4 µM | GI50 (BT-549 breast) > 100 µM | GI50 (CAKI-1 renal) 60.1 µM | GI50 (CCRF-CEM leukemia) 65.4 µM | GI50 (COLO 205 colon) > 100 µM | GI50 (DU-145 prostate) > 100 µM | GI50 (EKVX NSCLC) 68.8 µM | GI50 (HCC-2998 colon) > 100 µM | GI50 (HCT-116 colon) 62 µM | GI50 (HCT-15 colon) 61.3 µM | GI50 (HOP-62 NSCLC) > 100 µM | GI50 (HOP-92 NSCLC) 35.9 µM | GI50 (HS 578T breast) > 100 µM | GI50 (HT29 colon) 41.9 µM | GI50 (IGROV1 ovarian) 22.7 µM | GI50 (K-562 leukemia) 39.7 µM | GI50 (KM12 colon) 51.2 µM | GI50 (LOX IMVI melanoma) > 100 µM | GI50 (M14 melanoma) 42.9 µM | GI50 (MALME-3M melanoma) 70.3 µM | GI50 (MCF7 breast) 57 µM | GI50 (MDA-MB-231 breast) 46.2 µM | GI50 (MDA-MB-435) 74.7 µM | GI50 (MOLT-4 leukemia) 34.5 µM | GI50 (NCI-H226 lung) 44.1 µM | GI50 (NCI-H23 lung) 64.1 µM | GI50 (NCI-H460 lung) 47.7 µM | GI50 (NCI-H522 lung) 41.9 µM | GI50 (OVCAR-3 ovarian) 28.7 µM | GI50 (OVCAR-4 ovarian) 28.5 µM | GI50 (OVCAR-5 ovarian) > 100 µM | GI50 (OVCAR-8 ovarian) 63.4 µM | GI50 (PC-3 prostate) 42.3 µM | GI50 (RPMI-8226 leukemia) 38.9 µM | GI50 (RXF 393 renal) 42.9 µM | GI50 (SF-268 CNS) 81.3 µM | GI50 (SF-295 CNS) 23.7 µM | GI50 (SF-539 CNS) > 100 µM | GI50 (SK-MEL-2 melanoma) > 100 µM | GI50 (SK-MEL-28 melanoma) 76.1 µM | GI50 (SK-MEL-5 melanoma) 58.6 µM | GI50 (SK-OV-3 ovarian) > 100 µM | GI50 (SN12C renal) 85.4 µM | GI50 (SNB-19 CNS) > 100 µM | GI50 (SNB-75 CNS) 32.1 µM | GI50 (SW-620 colon) > 100 µM | GI50 (T-47D breast) > 100 µM | GI50 (TK-10 renal) 61.2 µM | GI50 (U251 CNS) 61.4 µM | GI50 (UACC-257 melanoma) 61.7 µM | GI50 (UACC-62 melanoma) 24.2 µM | GI50 (UO-31 renal) 48.9 µM
76.9 µM: TGI (IGROV1 ovarian)
> 100 µM: TGI (786-0 renal) | TGI (A498 renal) | TGI (A549 NSCLC) | TGI (ACHN renal) | TGI (BT-549 breast) | TGI (CAKI-1 renal) | TGI (CCRF-CEM leukemia) | TGI (COLO 205 colon) | TGI (DU-145 prostate) | TGI (EKVX NSCLC) | TGI (HCC-2998 colon) | TGI (HCT-116 colon) | TGI (HCT-15 colon) | TGI (HOP-62 NSCLC) | TGI (HOP-92 NSCLC) | TGI (HS 578T breast) | TGI (HT29 colon) | TGI (K-562 leukemia) | TGI (KM12 colon) | TGI (LOX IMVI melanoma) | TGI (M14 melanoma) | TGI (MALME-3M melanoma) | TGI (MCF7 breast) | TGI (MDA-MB-231 breast) | TGI (MDA-MB-435) | TGI (MOLT-4 leukemia) | TGI (NCI-H226 lung) | TGI (NCI-H23 lung) | TGI (NCI-H460 lung) | TGI (NCI-H522 lung) | TGI (OVCAR-3 ovarian) | TGI (OVCAR-5 ovarian) | TGI (OVCAR-8 ovarian) | TGI (PC-3 prostate) | TGI (RPMI-8226 leukemia) | TGI (RXF 393 renal) | TGI (SF-268 CNS) | TGI (SF-295 CNS) | TGI (SF-539 CNS) | TGI (SK-MEL-2 melanoma) | TGI (SK-MEL-28 melanoma) | TGI (SK-MEL-5 melanoma) | TGI (SK-OV-3 ovarian) | TGI (SN12C renal) | TGI (SNB-19 CNS) | TGI (SNB-75 CNS) | TGI (SW-620 colon) | TGI (T-47D breast) | TGI (TK-10 renal) | TGI (U251 CNS) | TGI (UACC-257 melanoma) | TGI (UACC-62 melanoma) | TGI (UO-31 renal)

N#Cc1cccc(C2C3=C(COC3=O)N(CCO)c3cc4c(cc32)OCO4)c1 (stereo not given)
8.52 µM: TGI (SF-539 CNS)
4.7 µM: TGI (NCI-H522 lung)
4.54 µM: TGI (RXF 393 renal)
4.36 µM: TGI (HL-60(TB) leukemia)
inactive: GI50 (786-0 renal) 2.04 µM | GI50 (A498 renal) 1.2 µM | GI50 (A549 NSCLC) 6.17 µM | GI50 (ACHN renal) 3.53 µM | GI50 (BT-549 breast) 1.98 µM | GI50 (CAKI-1 renal) 1.32 µM | GI50 (CCRF-CEM leukemia) 1.53 µM | GI50 (COLO 205 colon) 1.58 µM | GI50 (DU-145 prostate) 3 µM | GI50 (EKVX NSCLC) 2.78 µM | GI50 (HCC-2998 colon) 4.6 µM | GI50 (HCT-116 colon) 1.43 µM | GI50 (HCT-15 colon) 0.971 µM | GI50 (HL-60(TB) leukemia) 1.32 µM | GI50 (HOP-62 NSCLC) 2.1 µM | GI50 (HOP-92 NSCLC) 2.66 µM | GI50 (HS 578T breast) 1.3 µM | GI50 (HT29 colon) 1.49 µM | GI50 (IGROV1 ovarian) 8.08 µM | GI50 (KM12 colon) 1.74 µM | GI50 (LOX IMVI melanoma) 2.42 µM | GI50 (M14 melanoma) 0.806 µM | GI50 (MCF7 breast) 0.942 µM | GI50 (MDA-MB-231 breast) 2.42 µM | GI50 (MOLT-4 leukemia) 3.64 µM | GI50 (NCI-H226 lung) > 50 µM | GI50 (NCI-H23 lung) 3.58 µM | GI50 (NCI-H460 lung) 1.83 µM | GI50 (NCI-H522 lung) 0.561 µM | GI50 (NCI/ADR-RES ovarian) 3.46 µM | GI50 (OVCAR-3 ovarian) 1.35 µM | GI50 (OVCAR-4 ovarian) 10.9 µM | GI50 (OVCAR-5 ovarian) 7.92 µM | GI50 (OVCAR-8 ovarian) 2.88 µM | GI50 (PC-3 prostate) 1.62 µM | GI50 (RPMI-8226 leukemia) 1.79 µM | GI50 (RXF 393 renal) 1.26 µM | GI50 (SF-268 CNS) 3.99 µM | GI50 (SF-295 CNS) 1.17 µM | GI50 (SF-539 CNS) 1.53 µM | GI50 (SK-MEL-28 melanoma) 25.5 µM | GI50 (SK-MEL-5 melanoma) 1.07 µM | GI50 (SK-OV-3 ovarian) 2.08 µM | GI50 (SN12C renal) 3.81 µM | GI50 (SNB-19 CNS) 2.69 µM | GI50 (SNB-75 CNS) 0.745 µM | GI50 (SW-620 colon) 1.53 µM | GI50 (TK-10 renal) 15.4 µM | GI50 (U251 CNS) 2.3 µM | GI50 (UACC-257 melanoma) > 50 µM | GI50 (UACC-62 melanoma) 1.66 µM | GI50 (UO-31 renal) 2.63 µM
active: GI50 (K-562 leukemia) 0.294 µM | GI50 (MDA-MB-435) 0.154 µM | GI50 (SR leukemia) 0.313 µM
4.14 µM: TGI (A498 renal)
1.03 µM: TGI (MDA-MB-435)
> 50 µM: TGI (786-0 renal) | TGI (A549 NSCLC) | TGI (ACHN renal) | TGI (BT-549 breast) | TGI (CAKI-1 renal) | TGI (CCRF-CEM leukemia) | TGI (COLO 205 colon) | TGI (DU-145 prostate) | TGI (EKVX NSCLC) | TGI (HCC-2998 colon) | TGI (HCT-116 colon) | TGI (HCT-15 colon) | TGI (HOP-62 NSCLC) | TGI (HOP-92 NSCLC) | TGI (HT29 colon) | TGI (IGROV1 ovarian) | TGI (K-562 leukemia) | TGI (KM12 colon) | TGI (LOX IMVI melanoma) | TGI (M14 melanoma) | TGI (MCF7 breast) | TGI (MDA-MB-231 breast) | TGI (MOLT-4 leukemia) | TGI (NCI-H226 lung) | TGI (NCI-H23 lung) | TGI (NCI-H460 lung) | TGI (NCI/ADR-RES ovarian) | TGI (OVCAR-3 ovarian) | TGI (OVCAR-4 ovarian) | TGI (OVCAR-5 ovarian) | TGI (OVCAR-8 ovarian) | TGI (PC-3 prostate) | TGI (RPMI-8226 leukemia) | TGI (SF-268 CNS) | TGI (SF-295 CNS) | TGI (SK-MEL-28 melanoma) | TGI (SK-MEL-5 melanoma) | TGI (SK-OV-3 ovarian) | TGI (SN12C renal) | TGI (SNB-19 CNS) | TGI (SR leukemia) | TGI (SW-620 colon) | TGI (TK-10 renal) | TGI (U251 CNS) | TGI (UACC-257 melanoma) | TGI (UACC-62 melanoma) | TGI (UO-31 renal)
11.1 µM: TGI (HS 578T breast)
2.76 µM: TGI (SNB-75 CNS)
